Measured values published in ChEMBL document CHEMBL5143711, “Glenthmycins A-M: Macrocyclic Spirotetronate Polyketide Antibacterials from the Australian Pasture Plant-Derived Streptomyces sp. CMB-PB041” (J Nat Prod, 2022).

Test system: Mycobacterium tuberculosis variant bovis
Experiment: Antibacterial activity against Mycobacterium bovis BCG ATCC 35741 incubated for 16 to 24 hrs by broth microdilution based spectrophotometric analysis
Assay type: functional, organism-based

SMILES | IC50 [µM]
COc1cc(C)c(C(=O)O[C@H]2[C@@H](O)[C@@H](O)[C@H](O[C@H]3CC[C@H](C)[C@@H]4[C@@H]3C=C(C)[C@H]3/C(C)=C/CC/C(C)=C/[C@]5(C)C=C(C(=O)O)[C@H](C)C[C@]56OC(=O)C(=C6O)C(=O)[C@@]43C)O[C@@H]2C)c(O)c1 | > 30
COc1cc(C)c(C(=O)O[C@H]2[C@H](O[C@H]3CC[C@H](C)[C@@H]4[C@@H]3C=C(C)[C@H]3/C(C)=C/CC/C(C)=C/[C@]5(C)C=C(C(=O)O)[C@H](C)C[C@]56OC(=O)C(=C6O)C(=O)[C@@]43C)O[C@H](C)[C@@H](O)[C@H]2O)c(O)c1 | > 30
CC(=O)O[C@H]1CC[C@H](C)[C@@H]2[C@@H]1C=C(C)[C@H]1/C(C)=C/CC/C(C)=C/[C@]3(C)C=C(C)[C@H](C)C[C@]34OC(=O)C(=C4O)C(=O)[C@@]21C | > 30
CC1=C[C@@]2(C)/C=C(\C)CC/C=C(\C)[C@@H]3C(C)=C[C@H]4[C@@H]([C@@H](C)CC[C@@H]4O)[C@]3(C)C(=O)C3=C(O)[C@@]2(C[C@H]1C)OC3=O | > 30
COc1cc(C)c(C(=O)O[C@H]2[C@@H](O)[C@H](O[C@H]3CC[C@H](C)[C@@H]4[C@@H]3C=C(C)[C@H]3/C(C)=C/CC/C(C)=C/[C@]5(C)C=C(C(=O)O)[C@H](C)C[C@]56OC(=O)C(=C6O)C(=O)[C@@]43C)O[C@H](C)[C@H]2O)c(O)c1 | > 30
COc1cc(C)c(C(=O)N[C@@H]2[C@@H](C)O[C@@H](O[C@H]3CC[C@H](C)[C@@H]4[C@@H]3C=C(C)[C@H]3/C(C)=C/CC/C(C)=C/[C@]5(C)C=C(C(=O)O)[C@H](C)C[C@]56OC(=O)C(=C6O)C(=O)[C@@]43C)[C@H](O)[C@]2(C)O)c(O)c1 | > 30
COc1cc(C)c(C(=O)O[C@H]2[C@H](O[C@H]3CC[C@H](C)[C@@H]4[C@@H]3C=C(C)[C@H]3/C(C)=C/CC/C(C)=C/[C@@H]5C=C(C(=O)O)[C@H](C)C[C@]56OC(=O)C(=C6O)C(=O)[C@@]43C)O[C@H](C)[C@@H](O)[C@H]2O)c(O)c1 | > 30
COc1cc(C)c(C(=O)O[C@H]2[C@@H](O)[C@@H](O)[C@H](O[C@H]3CC[C@H](C)[C@@H]4[C@@H]3C=C(C)[C@H]3/C(C)=C/CC/C(C)=C/[C@]5(C)C=C(C(=O)O)[C@H](C)C[C@]56OC(=O)C(=C6O)C(=O)[C@@]43C)O[C@@H]2C)c(OC)c1 | > 30
COc1cc(C)c(C(=O)N[C@@H]2[C@@H](C)O[C@@H](O[C@H]3CC[C@H](C)[C@@H]4[C@@H]3C=C(C)[C@H]3/C(C)=C/CC/C(C)=C/[C@@H]5C=C(C(=O)O)[C@H](C)C[C@]56OC(=O)C(=C6O)C(=O)[C@@]43C)[C@H](O)[C@]2(C)O)c(O)c1 | > 30
COc1cc(C)c(C(=O)O[C@H]2[C@@H](O)[C@H](O[C@H]3CC[C@H](C)[C@@H]4[C@@H]3C=C(C)[C@H]3/C(C)=C/CC/C(C)=C/[C@@H]5C=C(C(=O)O)[C@H](C)C[C@]56OC(=O)C(=C6O)C(=O)[C@@]43C)O[C@H](C)[C@H]2O)c(O)c1 | > 30
COc1cc(C)c(C(=O)O[C@H]2[C@@H](O)[C@@H](O)[C@H](O[C@H]3CC[C@H](C)[C@@H]4[C@@H]3C=C(C)[C@H]3/C(C)=C/CC/C(C)=C/[C@@H]5C=C(C(=O)O)[C@H](C)C[C@]56OC(=O)C(=C6O)C(=O)[C@@]43C)O[C@@H]2C)c(O)c1 | > 30
CC(=O)O[C@H]1CC[C@H](C)[C@@H]2[C@@H]1C=C(C)[C@H]1/C(C)=C/CC/C(C)=C/[C@@H]3C=C(C)[C@H](C)C[C@]34OC(=O)C(=C4O)C(=O)[C@@]21C | > 30
